# pIC50: −log10 of the molar value. Where two headings read alike, the source gives them in different places.
# Experiments:
# [1] = target: Focal Adhesion Kinase (FAK) (Homo sapiens, UniProt Q05397); assay: FAK assay system (Focal Adhesion Kinase inhibition); format: biochemical; settings: read-out: FAK IC50
# [2] = test system: Mouse mammary carcinoma 4T1 cells; assay: Anchorage-independent tumor cell growth assay; format: cell-based
# Protocol: Cells are cultured for 2 h and inhibitors are added at various concentrations in a final concentration of 0.1% DMSO. After 48 h, cell growth is assayed with the cell counting kit-8 (Wako Pure Chemical), which uses a water soluble tetrazolium salt WST8. Twenty μL of the reagent is added into each well and cells are further cultured for 2 h. The optical density is measured at 450 nm.
# FAK = FAK (Mus musculus, UniProt P34152); assay: Phos IC50 (phosphorylation); format: cell-based
# FAK, sequence (P34152 2-1052): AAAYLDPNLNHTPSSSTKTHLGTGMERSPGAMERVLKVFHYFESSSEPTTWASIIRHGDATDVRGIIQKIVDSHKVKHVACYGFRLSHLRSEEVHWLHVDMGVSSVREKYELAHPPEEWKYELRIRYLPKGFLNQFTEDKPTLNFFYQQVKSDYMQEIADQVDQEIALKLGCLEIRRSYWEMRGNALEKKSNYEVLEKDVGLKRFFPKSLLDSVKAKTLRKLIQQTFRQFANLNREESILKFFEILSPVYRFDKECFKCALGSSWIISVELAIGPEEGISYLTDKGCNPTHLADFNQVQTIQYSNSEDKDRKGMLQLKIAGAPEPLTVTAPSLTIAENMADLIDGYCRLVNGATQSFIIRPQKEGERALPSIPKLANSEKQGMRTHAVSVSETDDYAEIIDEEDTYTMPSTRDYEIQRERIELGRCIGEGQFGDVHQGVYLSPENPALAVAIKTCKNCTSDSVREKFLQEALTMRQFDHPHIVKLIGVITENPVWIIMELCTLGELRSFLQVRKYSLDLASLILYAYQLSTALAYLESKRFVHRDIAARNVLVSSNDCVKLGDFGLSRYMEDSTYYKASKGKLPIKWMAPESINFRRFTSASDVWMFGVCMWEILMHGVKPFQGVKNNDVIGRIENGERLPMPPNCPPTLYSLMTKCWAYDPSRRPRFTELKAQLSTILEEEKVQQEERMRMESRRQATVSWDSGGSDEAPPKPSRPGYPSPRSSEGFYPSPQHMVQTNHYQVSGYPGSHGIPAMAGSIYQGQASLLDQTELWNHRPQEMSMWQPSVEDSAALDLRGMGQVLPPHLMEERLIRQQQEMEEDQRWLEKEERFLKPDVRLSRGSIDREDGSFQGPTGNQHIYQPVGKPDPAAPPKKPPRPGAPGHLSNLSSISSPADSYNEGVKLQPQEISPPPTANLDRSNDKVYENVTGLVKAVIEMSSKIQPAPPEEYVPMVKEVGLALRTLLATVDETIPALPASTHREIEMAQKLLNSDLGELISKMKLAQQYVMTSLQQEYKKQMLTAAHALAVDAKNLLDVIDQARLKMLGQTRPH
# Focal Adhesion Kinase (FAK), sequence (Q05397 384-706): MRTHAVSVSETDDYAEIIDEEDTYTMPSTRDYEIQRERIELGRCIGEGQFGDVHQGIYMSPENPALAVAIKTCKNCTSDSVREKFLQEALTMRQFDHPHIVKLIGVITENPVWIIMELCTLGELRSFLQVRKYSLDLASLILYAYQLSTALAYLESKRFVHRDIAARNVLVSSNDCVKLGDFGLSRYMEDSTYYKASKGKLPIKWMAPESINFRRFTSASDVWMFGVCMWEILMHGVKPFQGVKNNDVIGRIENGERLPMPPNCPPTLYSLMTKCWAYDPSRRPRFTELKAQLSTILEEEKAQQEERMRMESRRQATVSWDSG
SMILES,pIC50 [1],"pIC50 ([2]; Mus musculus, 4T1)",pIC50 (FAK),pIC50 [2]
CNC(=O)c1cc(F)ccc1Nc1nc(Nc2ccc(N3CCN(C(C)=O)CC3)cc2OC)ncc1Cl [Example 11-4],8.37,5.49,< 5.00,
CCC(C)NS(=O)(=O)c1ccccc1Nc1nc(Nc2ccc(N3CCN(C)CC3)cc2OC)ncc1Cl (stereo not drawn) [Example 21-1],9.00,,7.15,6.72
CNC(=O)c1cc(OC)ccc1Nc1nc(Nc2ccc(F)cc2OC)ncc1Cl [Example 16-3],7.68,< 5.00,5.52,
CCC(C)NS(=O)(=O)c1ccccc1Nc1nc(Nc2ccc(OCCN3CCOCC3)cc2OC)ncc1Cl (stereo not drawn) [Example 21-4],8.74,6.52,7.30,
CCCOc1ccc(OC)cc1Nc1ncc(Br)c(Nc2ccccc2S(=O)(=O)NC)n1 [Example 3-63],7.57,< 5.00,< 5.00,
CNS(=O)(=O)c1ccccc1Nc1nc(Nc2cc(OCCN3CCN(C)CC3)ccc2OC)ncc1Cl [Example 20-22],8.10,6.72,< 5.00,
COc1ccc(F)cc1Nc1ncc(Cl)c(Nc2ccccc2S(=O)(=O)NCC(C)C)n1 [Example 22-1],7.37,< 5.00,< 5.00,
CNS(=O)(=O)c1ccccc1Nc1nc(Nc2ccccc2OC)ncc1Br [Example 3-6],7.89,5.70,6.96,
COc1cc(N2CCOCC2)ccc1Nc1ncc(Cl)c(Nc2ccccc2S(=O)(=O)CCC(C)C)n1 [Example 34-4],7.89,5.91,< 5.00,
CNS(=O)(=O)c1ccccc1Nc1nc(Nc2ccc(N3CCC(C#N)CC3)cc2OC)ncc1Br [Example 3-40],8.05,6.05,< 5.00,
CNC(=O)c1ccccc1Nc1nc(Nc2ccc(N3CCN4CCOC[C@@H]4C3)cc2OC)ncc1Cl [Example 7-16],8.19,6.38,6.70,
COc1cc(-n2cncn2)ccc1Nc1ncc(Cl)c(Nc2ccccc2S(=O)(=O)C2CC2)n1 [Example 30-4],7.60,6.00,6.52,
COc1cc(N2CCN3CCOC[C@H]3C2)ccc1Nc1ncc(Cl)c(Nc2ccccc2S(=O)(=O)NC(C)C)n1 [Example 19-31],8.74,6.42,6.40,
CNS(=O)(=O)c1ccccc1Nc1nc(Nc2ccccc2C)ncc1Br [Example 3-7],7.80,5.70,6.35,
COc1cc(N2CCC(NC(C)=O)C2)ccc1Nc1ncc(Cl)c(Nc2ccccc2S(=O)(=O)NC2CCC2)n1 (stereo not drawn) [Example 24-3],9.00,5.97,6.52,
COc1cc(N2CCN(C)C(=O)C2)ccc1Nc1ncc(Cl)c(Nc2ccccc2S(=O)(=O)C(C)C)n1 [Example 28-23],8.23,6.55,6.30,
COc1cc(F)ccc1Nc1ncc(Cl)c(Nc2ccccc2S(=O)(=O)NC(C)C)n1 [Example 19-6],8.30,6.15,6.00,
CNS(=O)(=O)c1ccccc1Nc1nc(Nc2cc(F)ccc2Cl)ncc1Br [Example 3-38],7.19,5.42,5.77,
COc1cc(F)ccc1Nc1ncc(Cl)c(Nc2ccccc2S(=O)(=O)NCC(F)(F)F)n1 [Example 16C],7.55,< 5.00,6.05,
CCC(C)NS(=O)(=O)c1ccccc1Nc1nc(Nc2ccc(OC3CCN(C)CC3)cc2OC)ncc1Cl (stereo not drawn) [Example 21-3],8.77,6.52,6.52,
CCS(=O)(=O)c1ccccc1Nc1nc(Nc2ccc(CN3CCN(C)CC3)cc2OC)ncc1Cl [Example 27-7],8.26,6.24,5.70,
COc1cc(N2CCC(OC)C2)ccc1Nc1ncc(Cl)c(Nc2ccccc2S(=O)(=O)C(C)C)n1 (stereo not drawn) [Example 28-17],7.82,5.72,6.80,
CNC(=O)c1cc(N2CCOCC2)ccc1Nc1nc(Nc2ccc(N3CCN(C(C)=O)CC3)cc2OC)ncc1Cl [Example 18-1],7.72,5.89,< 5.00,
COc1cc(N2CCC(N3CCCC3)CC2)ccc1Nc1ncc(Cl)c(Nc2ccccc2S(=O)(=O)NC(C)C)n1 [Example 19-15],8.51,6.44,6.30,
COc1cc(F)ccc1Nc1ncc(Cl)c(Nc2ccccc2S(=O)(=O)NCC(C)C)n1 [Example 22-2],7.59,5.52,6.00,
CNS(=O)(=O)c1ccccc1Nc1nc(Nc2ccc(F)cc2OC)ncc1Cl [Example 20-24],7.72,5.70,6.32,
CNC(=O)c1c(C)cccc1Nc1nc(Nc2ccc(N3CCOCC3)cc2OC)ncc1Cl [Example 10-3],7.64,5.62,6.05,

SMILES,pIC50 [1],"pIC50 ([2]; Mus musculus, 4T1)",pIC50 (FAK),pIC50 [2]
COc1cc(N2CCN(C(C)=O)CC2)ccc1Nc1ncc(Cl)c(Nc2ccccc2S(=O)(=O)C2CC2)n1 [Example 30-2],7.92,6.33,6.70,
CNC(=O)c1cc(N2CCN(C)CC2)ccc1Nc1nc(Nc2ccc(F)cc2OC)ncc1Cl [Example 16-2],8.22,6.22,< 5.00,
CNS(=O)(=O)c1ccccc1Nc1nc(Nc2cc(N3CCCCC3)ccc2C)ncc1Br [Example 3-26],7.30,5.70,6.10,
CCCS(=O)(=O)c1ccccc1Nc1nc(Nc2ccc(OCCN3CCCC3=O)cc2OC)ncc1Cl [Example 26-18],8.89,,5.22,5.93
COc1cc(F)ccc1Nc1ncc(Cl)c(Nc2ccccc2S(=O)(=O)N2CCOCC2)n1 [Example 16B],7.96,5.15,5.52,
COc1cc(N2CCN(C(C)=O)CC2)ccc1Nc1ncc(Cl)c(Nc2ccccc2S(=O)(=O)C2CCCC2)n1 [Example 33-1],8.60,6.60,7.10,
CNC(=O)c1ccccc1Nc1nc(Nc2ccc(F)cc2OC)ncc1Br [Example 8-4],8.10,5.96,< 5.00,
CNS(=O)(=O)c1ccccc1Nc1nc(Nc2cc(C(=O)N3CCOCC3)ccc2C)ncc1Br [Example 3-22],6.92,5.70,6.05,
CCS(=O)(=O)c1ccccc1Nc1nc(Nc2ccc(N3CCCC(C(N)=O)C3)cc2OC)ncc1Cl (stereo not drawn) [Example 27-6],9.00,6.51,7.10,
CNS(=O)(=O)c1ccccc1Nc1nc(Nc2cc(-c3ccccc3)ccc2OC)ncc1Br [Example 3-9],7.32,6.15,6.30,
CCCS(=O)(=O)c1ccccc1Nc1nc(Nc2ccc(N3CCN(C(=O)C(C)C)CC3)cc2OC)ncc1Cl [Example 26-9],8.64,6.66,7.40,
CNC(=O)c1ccccc1Nc1nc(Nc2ccc(N3CCN(C(C)=O)CC3)cc2OC)ncc1Cl [Example 7-7],8.39,6.74,6.05,
COc1cc(N2CCOCC2)ccc1Nc1ncc(Cl)c(Nc2ccccc2S(=O)(=O)C(C)C)n1 [Example 28-3],8.13,6.54,7.15,
CNC(=O)c1cc(F)ccc1Nc1nc(Nc2ccc(N3CCC(N4CCCCC4)CC3)cc2OC)ncc1Cl [Example 11-2],8.39,6.16,6.10,
CC(C)S(=O)(=O)c1ccccc1Nc1nc(Nc2cccc3c2OCC3)ncc1Cl [Example 28-31],8.13,5.97,7.22,
CNC(=O)c1cc(F)ccc1Nc1nc(Nc2ccc(N3CCOCC3)cc2OC)ncc1Cl [Example 11-1],8.05,6.07,6.15,
CNS(=O)(=O)c1ccccc1Nc1nc(Nc2cc(OC)ccc2OC(C)C)ncc1Br [Example 3-62],7.20,< 5.00,< 5.00,
CCCS(=O)(=O)c1ccccc1Nc1nc(Nc2ccc(N3CCN(C(=O)CC)CC3)cc2OC)ncc1Cl [Example 26-8],8.54,6.74,8.00,
CCOc1ccc(N2CCOCC2)cc1Nc1ncc(Br)c(Nc2ccccc2S(=O)(=O)NC)n1 [Example 3-57],7.55,5.52,6.21,
CCC[S+]([O-])c1ccccc1Nc1nc(Nc2ccc(F)cc2OC)ncc1Cl (stereo not drawn) [Example 34-7],7.57,5.57,< 5.00,
COc1c(Nc2ncc(Cl)c(Nc3ccccc3S(=O)(=O)NC(C)C)n2)ccc(N2CCOCC2)c1F [Example 19-11],7.42,5.70,< 5.00,
CNC(=O)c1cc(N2CCN(C)CC2)ccc1Nc1nc(Nc2cccc3c2ccn3C)ncc1Cl [Example 35-2],8.21,6.64,6.15,
COc1cc(N2CCC(N3CCN(C)CC3)CC2)ccc1Nc1ncc(Cl)c(Nc2ccccc2S(=O)(=O)C2CC2)n1 [Example 30-7],8.06,6.33,6.22,
COc1cc(-n2cncn2)ccc1Nc1ncc(Cl)c(Nc2ccccc2S(=O)(=O)C(C)C)n1 [Example 28-4],8.12,6.52,6.52,
CNC1CCN(c2ccc(Nc3ncc(Cl)c(Nc4ccccc4S(=O)(=O)C(C)C)n3)c(OC)c2)CC1 [Example 28-20],8.36,,[…],
COc1cc(N2CCC(N3CCN(C)CC3)CC2)ccc1Nc1ncc(Cl)c(Nc2ccccc2S(=O)(=O)C(C)C)n1 [Example 28-5],,6.92,7.00,
CCCS(=O)(=O)c1ccccc1Nc1nc(Nc2ccc(N3CCN(CC(=O)NC(C)C)CC3)cc2OC)ncc1Cl [Example 26-21],8.96,,7.00,

# Source: US7893074B2, “2, 4-pyrimidinediamines useful in the treatment of neoplastic diseases, inflammatory and immune system disorders” (Novartis AG, priority 2003, dated 2011)
